The values that follow come from US8383637B2, “2-amino-quinazoline derivatives useful as inhibitors of β-secretase (BACE)” (Jansssen Pharmaceutica N.V., priority 2004, dated 2013).

The test deals with T1, β-secretase(BACE) (Homo sapiens, UniProt P56817).
T1 construct: purchased Panvera
Put plainly: BACE FS1% Inhibition Assay. The class given is biochemical. Particulars: FS1 substrate. In a few lines: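 Human BACE (4 μg/mL working solution) preincubated 20 min at room temperature with compound, then FS1 substrate (300 μg/mL working solution) added and incubated 1 h at room temperature. Percent inhibition calculated at each compound concentration against blank and vehicle controls.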

Bounds are passed on as bounds.

T1 sequence (P56817 46-501): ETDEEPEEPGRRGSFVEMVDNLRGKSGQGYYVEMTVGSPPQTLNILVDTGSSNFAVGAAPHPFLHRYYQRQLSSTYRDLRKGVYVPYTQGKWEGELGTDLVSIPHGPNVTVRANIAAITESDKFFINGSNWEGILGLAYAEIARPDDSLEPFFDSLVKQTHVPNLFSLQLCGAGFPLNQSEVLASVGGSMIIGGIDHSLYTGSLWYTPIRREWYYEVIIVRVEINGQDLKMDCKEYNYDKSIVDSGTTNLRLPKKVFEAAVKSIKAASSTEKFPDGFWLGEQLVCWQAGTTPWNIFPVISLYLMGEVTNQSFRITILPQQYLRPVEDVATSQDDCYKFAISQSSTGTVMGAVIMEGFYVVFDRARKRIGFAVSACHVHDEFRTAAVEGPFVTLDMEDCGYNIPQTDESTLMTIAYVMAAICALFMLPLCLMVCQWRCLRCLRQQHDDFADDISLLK

With `COc1ccc(C)cc1-c1ccc2c(c1)CN(CCNC(=O)C1CCCCC1)C(N)=N2` [Compound 630], where the note is “0.3 μM test compound”, the “% Inhibition (FS) 0.3 μM” value is reported as less than 30%. For the same compound, under “1 μM test compound”, the “% Inhibition (FS) 1 μM” value is reported as less than 30%. Further, the “% Inhibition (FS) 3 μM” value (3 μM test compound) came to 48%.
`COc1ccc(F)cc1-c1ccc2c(c1)CN(CCNC(=O)C1CCCCC1)C(N)=N2` [Compound 631]: the “% Inhibition (FS) 0.3 μM” value (0.3 μM test compound) is listed as less than 30%. Also, under “1 μM test compound”, the “% Inhibition (FS) 1 μM” value is listed as less than 30%. Moreover, under “3 μM test compound”, the “% Inhibition (FS) 3 μM” value came out at 48%.
Turning to `CN(C(=O)CCC(C1CCCCC1)N1Cc2cc(Oc3ccccc3)ccc2N=C1N)C1CCOCC1` (stereo not drawn) [Compound 633], the “% Inhibition (FS) 0.3 μM” value (0.3 μM test compound) was less than 30%. The “% Inhibition (FS) 1 μM” value (1 μM test compound) was 30%. Under “3 μM test compound”, the “% Inhibition (FS) 3 μM” value is 70%.
For the compound `NC1=Nc2ccc(Oc3ccccc3)cc2CN1C[C@H](NC(=O)C1CCCCC1)C1CCCCC1` [Compound 636, (R)-enantiomer of cyclohexanecarboxylic acid [2-(2-amino-6-phenoxy-4H-quinazolin-3-yl)-1-cyclohexyl-ethyl]-amide], the inhibition at 0.3 µM (0.3 μM test compound, read-out: % Inhibition (FS) 0.3 μM) was less than 30%. For the same compound, for the setting “1 μM test compound, read-out: % Inhibition (FS) 1 μM”, the inhibition at 1 µM was less than 30%. For the same compound, for the setting “3 μM test compound, read-out: % Inhibition (FS) 3 μM”, the inhibition at 3 µM turned out to be 30%.
For `NC1=Nc2ccc(Oc3ccccc3)cc2CN1CC(NC(=O)C1CCCCC1)C1CCCCC1` (stereo not drawn) [Compound 637], the “% Inhibition (FS) 0.3 μM” value (0.3 μM test compound) is given as less than 30%. In addition, where the note is “1 μM test compound”, the “% Inhibition (FS) 1 μM” value is on record as less than 30%. In addition, the “% Inhibition (FS) 3 μM” value (3 μM test compound) was determined as 73%.
`CN(C(=O)CCC(C1CCCCC1)N1Cc2cc(Oc3ccccc3)ccc2N=C1N)C1CCC(O)CC1` (stereo not drawn) [Compound 639]: for the setting “0.3 μM test compound”, the “% Inhibition (FS) 0.3 μM” value is less than 30%. In addition, the “% Inhibition (FS) 1 μM” value (1 μM test compound) is given as less than 30%. In addition, the “% Inhibition (FS) 3 μM” value (3 μM test compound) was determined as 48%.
As for `NC1=Nc2ccc(Oc3ccccc3)cc2CN1Cc1ocnc1C(=O)NC1CCCCC1` [Compound 640], for the setting “0.3 μM test compound”, the “% Inhibition (FS) 0.3 μM” value is given as less than 30%. Also, the “% Inhibition (FS) 1 μM” value (1 μM test compound) is reported as less than 30%. Besides, for the setting “3 μM test compound”, the “% Inhibition (FS) 3 μM” value was less than 30%.
For `CN(C(=O)c1ncoc1CN1Cc2cc(Oc3ccccc3)ccc2N=C1N)C1CCCCC1` [Compound 641], the “% Inhibition (FS) 0.3 μM” value (0.3 μM test compound) is less than 30%. Moreover, the “% Inhibition (FS) 1 μM” value (1 μM test compound) was less than 30%. Moreover, for the setting “3 μM test compound”, the “% Inhibition (FS) 3 μM” value came out at 48%.
For `NC1=Nc2ccc(-c3ccccc3F)cc2CN1CCNC(=O)C1CCC1` [Compound 642], the “% Inhibition (FS) 0.3 μM” value (0.3 μM test compound) was found to be 37%. For the same compound, the “% Inhibition (FS) 1 μM” value (1 μM test compound) was 63%. For the same compound, for the setting “3 μM test compound”, the “% Inhibition (FS) 3 μM” value is reported as 96%.
Take `NC1=Nc2ccc(-c3ccccc3F)cc2CN1CCNC(=O)C1CCCC1` [Compound 643]: under “0.3 μM test compound”, the “% Inhibition (FS) 0.3 μM” value is 74%. Moreover, the “% Inhibition (FS) 1 μM” value (1 μM test compound) is listed as 92%. Besides, under “3 μM test compound”, the “% Inhibition (FS) 3 μM” value came to 110%.
On to `NC1=Nc2ccc(-c3ccccc3F)cc2CN1CCNC(=O)C12CC3CC(CC(C3)C1)C2` [Compound 644], for which, under “0.3 μM test compound”, the “% Inhibition (FS) 0.3 μM” value was found to be 46%. For the same compound, for the setting “1 μM test compound”, the “% Inhibition (FS) 1 μM” value worked out at 72%. Moreover, the “% Inhibition (FS) 3 μM” value (3 μM test compound) came out at 104%.
Taken in the same sequence, the figures for `CCCC(=O)NCCN1Cc2cc(-c3ccccc3F)ccc2N=C1N` [Compound 645] were 67%, 57% and 91%.
For `CC(C)(C)C(=O)NCCN1Cc2cc(-c3ccccc3F)ccc2N=C1N` [Compound 646], in that order: 52%, 72% and 97%.
For `CCCCC(CC)C(=O)NCCN1Cc2cc(-c3ccccc3F)ccc2N=C1N` (stereo not drawn) [Compound 648], in that order: 39%, 74% and 104%.
Turning to `NC1=Nc2ccc(-c3ccccc3Cl)cc2CN1CCNC(=O)C1CCC1` [Compound 649], the “% Inhibition (FS) 0.3 μM” value (0.3 μM test compound) turned out to be 34%. Further, the “% Inhibition (FS) 1 μM” value (1 μM test compound) turned out to be 65%. Further, the “% Inhibition (FS) 3 μM” value (3 μM test compound) is given as 95%.
Regarding `NC1=Nc2ccc(-c3ccccc3Cl)cc2CN1CCNC(=O)C1CCCC1` [Compound 650], where the note is “0.3 μM test compound”, the “% Inhibition (FS) 0.3 μM” value was 72%. For the same compound, under “1 μM test compound”, the “% Inhibition (FS) 1 μM” value is reported as 94%. Besides, the “% Inhibition (FS) 3 μM” value (3 μM test compound) is recorded as 112%.
With `NC1=Nc2ccc(-c3ccccc3Cl)cc2CN1CCNC(=O)C12CC3CC(CC(C3)C1)C2` [Compound 651], the “% Inhibition (FS) 0.3 μM” value (0.3 μM test compound) is on record as less than 30%. Moreover, the “% Inhibition (FS) 1 μM” value (1 μM test compound) is reported as 51%. The “% Inhibition (FS) 3 μM” value (3 μM test compound) is reported as 96%.
On to `CCCC(=O)NCCN1Cc2cc(-c3ccccc3Cl)ccc2N=C1N` [Compound 652], for which the “% Inhibition (FS) 0.3 μM” value (0.3 μM test compound) was 31%. Moreover, where the note is “1 μM test compound”, the “% Inhibition (FS) 1 μM” value turned out to be 63%. In addition, under “3 μM test compound”, the “% Inhibition (FS) 3 μM” value amounted to 91%.
On to `CC(C)(C)C(=O)NCCN1Cc2cc(-c3ccccc3Cl)ccc2N=C1N` [Compound 653], for which, under “0.3 μM test compound”, the “% Inhibition (FS) 0.3 μM” value is listed as 46%. In addition, the “% Inhibition (FS) 1 μM” value (1 μM test compound) came to 82%. The “% Inhibition (FS) 3 μM” value (3 μM test compound) was 101%.
On to `CCCCC(CC)C(=O)NCCN1Cc2cc(-c3ccccc3Cl)ccc2N=C1N` (stereo not drawn) [Compound 655], for which, where the note is “0.3 μM test compound”, the “% Inhibition (FS) 0.3 μM” value turned out to be 45%. For the same compound, for the setting “1 μM test compound”, the “% Inhibition (FS) 1 μM” value is given as 79%. Where the note is “3 μM test compound”, the “% Inhibition (FS) 3 μM” value is reported as 104%.
On to `Cc1ccccc1-c1ccc2c(c1)CN(CCNC(=O)C1CCC1)C(N)=N2` [Compound 656], for which the “% Inhibition (FS) 0.3 μM” value (0.3 μM test compound) was determined as 56%. In addition, the “% Inhibition (FS) 1 μM” value (1 μM test compound) stood at 87%. Further, the “% Inhibition (FS) 3 μM” value (3 μM test compound) was 104%.
Taken in the same sequence, the figures for `Cc1ccccc1-c1ccc2c(c1)CN(CCNC(=O)C13CC4CC(CC(C4)C1)C3)C(N)=N2` [Compound 658] were less than 30%, 62% and 100%.
As to `CCCC(=O)NCCN1Cc2cc(-c3ccccc3C)ccc2N=C1N` [Compound 659], the “% Inhibition (FS) 0.3 μM” value (0.3 μM test compound) amounted to 43%. Besides, the “% Inhibition (FS) 1 μM” value (1 μM test compound) is reported as 69%. Also, under “3 μM test compound”, the “% Inhibition (FS) 3 μM” value amounted to 100%.
With `Cc1ccccc1-c1ccc2c(c1)CN(CCNC(=O)C(C)(C)C)C(N)=N2` [Compound 660], the “% Inhibition (FS) 0.3 μM” value (0.3 μM test compound) was found to be 63%. Besides, the “% Inhibition (FS) 1 μM” value (1 μM test compound) is recorded as 86%. Besides, the “% Inhibition (FS) 3 μM” value (3 μM test compound) was 105%.
For the compound `Cc1ccccc1-c1ccc2c(c1)CN(CCNC(=O)CCC(C)C)C(N)=N2` [Compound 661], the “% Inhibition (FS)” value reads like this: (0.3 μM test compound) 68%; (1 μM test compound) 98%; (3 μM test compound) 106%.
In the case of `CCCCC(CC)C(=O)NCCN1Cc2cc(-c3ccccc3C)ccc2N=C1N` (stereo not drawn) [Compound 662], the “% Inhibition (FS)” value is, setting by setting: (0.3 μM test compound) 66%; (1 μM test compound) 97%; (3 μM test compound) 109%.
Regarding `NC1=Nc2ccc(-c3ccc4ccccc4c3)cc2CN1CCNC(=O)C1CCC1` [Compound 663], the “% Inhibition (FS)” value (0.3 μM test compound) is reported as less than 30%, the “% Inhibition (FS)” value (1 μM test compound) is reported as less than 30% and the “% Inhibition (FS)” value (3 μM test compound) is recorded as less than 30%.
Consider `NC1=Nc2ccc(-c3ccc4ccccc4c3)cc2CN1CCNC(=O)C1CCCC1` [Compound 664], for which the “% Inhibition (FS)” value is, setting by setting: (0.3 μM test compound) less than 30%; (1 μM test compound) less than 30%; (3 μM test compound) less than 30%.
`NC1=Nc2ccc(-c3ccc4ccccc4c3)cc2CN1CCNC(=O)C12CC3CC(CC(C3)C1)C2` [Compound 665]: the “% Inhibition (FS)” value is recorded as 35% (0.3 μM test compound), less than 30% (1 μM test compound) and less than 30% (3 μM test compound).
For the compound `CCCC(=O)NCCN1Cc2cc(-c3ccc4ccccc4c3)ccc2N=C1N` [Compound 666], the “% Inhibition (FS)” value (0.3 μM test compound) is 37%, the “% Inhibition (FS)” value (1 μM test compound) was less than 30% and the “% Inhibition (FS)” value (3 μM test compound) is listed as less than 30%.
Turning to `CC(C)(C)C(=O)NCCN1Cc2cc(-c3ccc4ccccc4c3)ccc2N=C1N` [Compound 667], the “% Inhibition (FS)” value was 33% (0.3 μM test compound), less than 30% (1 μM test compound) and less than 30% (3 μM test compound).
As for `CC(C)CCC(=O)NCCN1Cc2cc(-c3ccc4ccccc4c3)ccc2N=C1N` [Compound 668], the “% Inhibition (FS)” value (0.3 μM test compound) is less than 30%, the “% Inhibition (FS)” value (1 μM test compound) is recorded as less than 30% and the “% Inhibition (FS)” value (3 μM test compound) is less than 30%.
`CCCCC(CC)C(=O)NCCN1Cc2cc(-c3ccc4ccccc4c3)ccc2N=C1N` (stereo not drawn) [Compound 669]: the “% Inhibition (FS)” value (0.3 μM test compound) is on record as less than 30%, the “% Inhibition (FS)” value (1 μM test compound) is on record as less than 30% and the “% Inhibition (FS)” value (3 μM test compound) stood at 32%.
As for `NC1=Nc2ccc(-c3cnc4ccccc4c3)cc2CN1CCNC(=O)C1CCC1` [Compound 670], the “% Inhibition (FS)” value reads like this: (0.3 μM test compound) less than 30%; (1 μM test compound) less than 30%; (3 μM test compound) 44%.
In the case of `NC1=Nc2ccc(-c3cnc4ccccc4c3)cc2CN1CCNC(=O)C1CCCC1` [Compound 671], the “% Inhibition (FS)” value by setting is: (0.3 μM test compound) less than 30%; (1 μM test compound) 30%; (3 μM test compound) less than 30%.
With `NC1=Nc2ccc(-c3cnc4ccccc4c3)cc2CN1CCNC(=O)C12CC3CC(CC(C3)C1)C2` [Compound 672], the “% Inhibition (FS)” value (0.3 μM test compound) is listed as less than 30%, the “% Inhibition (FS)” value (1 μM test compound) was less than 30% and the “% Inhibition (FS)” value (3 μM test compound) was less than 30%.
For the compound `CCCC(=O)NCCN1Cc2cc(-c3cnc4ccccc4c3)ccc2N=C1N` [Compound 673], the “% Inhibition (FS)” value is reported as 34% (0.3 μM test compound), less than 30% (1 μM test compound) and less than 30% (3 μM test compound).
Consider `CC(C)(C)C(=O)NCCN1Cc2cc(-c3cnc4ccccc4c3)ccc2N=C1N` [Compound 674], for which the “% Inhibition (FS)” value reads like this: (0.3 μM test compound) 36%; (1 μM test compound) less than 30%; (3 μM test compound) 41%.
Take `CC(C)CCC(=O)NCCN1Cc2cc(-c3cnc4ccccc4c3)ccc2N=C1N` [Compound 675]: the “% Inhibition (FS)” value (0.3 μM test compound) worked out at 35%, the “% Inhibition (FS)” value (1 μM test compound) is given as less than 30% and the “% Inhibition (FS)” value (3 μM test compound) is recorded as less than 30%.
As to `CCCCC(CC)C(=O)NCCN1Cc2cc(-c3cnc4ccccc4c3)ccc2N=C1N` (stereo not drawn) [Compound 676], the “% Inhibition (FS)” value reads like this: (0.3 μM test compound) 33%; (1 μM test compound) less than 30%; (3 μM test compound) 44%.
